Data taken from patent US20230139171A1 (SITA Information Networking Computing UK Limited, priority 2019, published 2023).

How the values were obtained:
Assay type in all cases: cell-based
[1] = target: T1, human TLR7 (Homo sapiens, UniProt Q9NYK1); test: TLR7 inhibition reporter assay (HEK-Blue cells, SEAP reporter, gardiquimod stimulation); conditions: HEK-Blue cells overexpressing human TLR7, SEAP reporter, gardiquimod 7.5 μM; read-out: TLR7 IC50
T1 construct: host or cells: HEK-Blue cells
T1 sequence (Q9NYK1 27-1049): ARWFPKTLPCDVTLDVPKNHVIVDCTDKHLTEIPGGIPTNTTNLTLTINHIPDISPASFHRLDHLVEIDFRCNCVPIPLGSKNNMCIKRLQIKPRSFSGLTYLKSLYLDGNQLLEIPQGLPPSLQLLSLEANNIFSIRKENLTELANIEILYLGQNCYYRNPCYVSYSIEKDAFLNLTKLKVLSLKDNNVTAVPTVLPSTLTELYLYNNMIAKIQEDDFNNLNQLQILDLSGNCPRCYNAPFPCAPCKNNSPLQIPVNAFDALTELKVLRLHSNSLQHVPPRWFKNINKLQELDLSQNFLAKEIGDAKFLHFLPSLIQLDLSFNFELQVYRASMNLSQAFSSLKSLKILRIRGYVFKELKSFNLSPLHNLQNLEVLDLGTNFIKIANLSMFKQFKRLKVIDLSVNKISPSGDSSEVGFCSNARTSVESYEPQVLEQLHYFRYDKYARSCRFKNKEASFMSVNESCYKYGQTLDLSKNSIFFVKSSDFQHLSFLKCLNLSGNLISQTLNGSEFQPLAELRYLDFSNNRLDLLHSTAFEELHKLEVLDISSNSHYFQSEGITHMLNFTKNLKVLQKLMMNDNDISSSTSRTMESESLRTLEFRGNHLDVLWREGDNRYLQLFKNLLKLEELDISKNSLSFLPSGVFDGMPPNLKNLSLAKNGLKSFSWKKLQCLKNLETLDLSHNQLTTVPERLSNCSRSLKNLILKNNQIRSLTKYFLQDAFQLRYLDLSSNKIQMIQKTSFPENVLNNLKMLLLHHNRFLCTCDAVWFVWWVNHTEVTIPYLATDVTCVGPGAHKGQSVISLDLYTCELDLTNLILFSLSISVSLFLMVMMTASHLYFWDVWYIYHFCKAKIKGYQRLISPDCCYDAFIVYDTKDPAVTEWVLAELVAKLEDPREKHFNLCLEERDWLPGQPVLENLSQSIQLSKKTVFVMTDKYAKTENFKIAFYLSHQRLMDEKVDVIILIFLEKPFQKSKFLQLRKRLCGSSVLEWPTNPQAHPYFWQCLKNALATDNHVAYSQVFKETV
Outline: (§1)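 Agonists used: gardiquimod 7.5 μM (TLR7), R848 15.9 μM (TLR8), ODN2006 5 nM (TLR9), added after 30 min room-temperature compound pre-treatment (0.05 nM–50 μM) of receptor-overexpressing HEK-Blue cells. SEAP reporter (NF-κB/AP-1 driven) read after 22 h at 37 °C; inhibition scaled between agonist+DMSO and reference-inhibitor wells.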

[2] = target: T2, human TLR8 (Homo sapiens, UniProt Q9NR97); test: TLR8 inhibition reporter assay (HEK-Blue cells, SEAP reporter, R848 stimulation); conditions: HEK-Blue cells overexpressing human TLR8, SEAP reporter, R848 15.9 μM; read-out: TLR8 IC50
T2 construct: host or cells: HEK-Blue cells
T2 sequence (Q9NR97 27-1041): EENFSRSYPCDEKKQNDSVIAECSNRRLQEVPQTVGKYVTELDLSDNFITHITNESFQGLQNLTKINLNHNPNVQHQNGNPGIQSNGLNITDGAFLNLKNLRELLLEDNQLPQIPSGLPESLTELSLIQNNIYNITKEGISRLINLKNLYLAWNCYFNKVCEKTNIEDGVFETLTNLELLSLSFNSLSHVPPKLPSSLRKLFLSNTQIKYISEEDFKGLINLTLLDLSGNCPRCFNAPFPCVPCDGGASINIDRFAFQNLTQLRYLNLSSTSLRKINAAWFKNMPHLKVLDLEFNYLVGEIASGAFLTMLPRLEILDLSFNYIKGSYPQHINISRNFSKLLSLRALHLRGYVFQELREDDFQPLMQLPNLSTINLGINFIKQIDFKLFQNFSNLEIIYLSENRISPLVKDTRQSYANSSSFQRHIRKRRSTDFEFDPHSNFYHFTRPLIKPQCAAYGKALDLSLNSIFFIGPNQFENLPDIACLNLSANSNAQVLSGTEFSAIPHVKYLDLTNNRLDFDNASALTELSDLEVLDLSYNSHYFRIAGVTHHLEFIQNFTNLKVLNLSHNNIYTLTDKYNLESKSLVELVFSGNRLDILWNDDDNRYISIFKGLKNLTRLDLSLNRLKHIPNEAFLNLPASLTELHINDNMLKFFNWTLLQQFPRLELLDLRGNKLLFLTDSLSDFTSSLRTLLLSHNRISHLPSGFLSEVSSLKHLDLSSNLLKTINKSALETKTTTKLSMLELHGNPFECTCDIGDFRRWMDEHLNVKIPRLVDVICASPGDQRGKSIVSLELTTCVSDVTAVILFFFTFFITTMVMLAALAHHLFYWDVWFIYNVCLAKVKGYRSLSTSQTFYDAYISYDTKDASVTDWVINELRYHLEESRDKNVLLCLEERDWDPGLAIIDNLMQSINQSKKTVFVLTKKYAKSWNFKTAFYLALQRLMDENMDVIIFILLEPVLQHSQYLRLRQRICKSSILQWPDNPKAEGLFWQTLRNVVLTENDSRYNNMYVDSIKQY
Outline: as §1

[3] = target: T3, human TLR9 (Homo sapiens, UniProt Q9NR96); test: TLR9 inhibition reporter assay (HEK-Blue cells, SEAP reporter, ODN2006 stimulation); conditions: HEK-Blue cells overexpressing human TLR9, SEAP reporter, ODN2006 5 nM
T3 construct: host or cells: HEK-Blue cells
T3 sequence (Q9NR96 26-1032): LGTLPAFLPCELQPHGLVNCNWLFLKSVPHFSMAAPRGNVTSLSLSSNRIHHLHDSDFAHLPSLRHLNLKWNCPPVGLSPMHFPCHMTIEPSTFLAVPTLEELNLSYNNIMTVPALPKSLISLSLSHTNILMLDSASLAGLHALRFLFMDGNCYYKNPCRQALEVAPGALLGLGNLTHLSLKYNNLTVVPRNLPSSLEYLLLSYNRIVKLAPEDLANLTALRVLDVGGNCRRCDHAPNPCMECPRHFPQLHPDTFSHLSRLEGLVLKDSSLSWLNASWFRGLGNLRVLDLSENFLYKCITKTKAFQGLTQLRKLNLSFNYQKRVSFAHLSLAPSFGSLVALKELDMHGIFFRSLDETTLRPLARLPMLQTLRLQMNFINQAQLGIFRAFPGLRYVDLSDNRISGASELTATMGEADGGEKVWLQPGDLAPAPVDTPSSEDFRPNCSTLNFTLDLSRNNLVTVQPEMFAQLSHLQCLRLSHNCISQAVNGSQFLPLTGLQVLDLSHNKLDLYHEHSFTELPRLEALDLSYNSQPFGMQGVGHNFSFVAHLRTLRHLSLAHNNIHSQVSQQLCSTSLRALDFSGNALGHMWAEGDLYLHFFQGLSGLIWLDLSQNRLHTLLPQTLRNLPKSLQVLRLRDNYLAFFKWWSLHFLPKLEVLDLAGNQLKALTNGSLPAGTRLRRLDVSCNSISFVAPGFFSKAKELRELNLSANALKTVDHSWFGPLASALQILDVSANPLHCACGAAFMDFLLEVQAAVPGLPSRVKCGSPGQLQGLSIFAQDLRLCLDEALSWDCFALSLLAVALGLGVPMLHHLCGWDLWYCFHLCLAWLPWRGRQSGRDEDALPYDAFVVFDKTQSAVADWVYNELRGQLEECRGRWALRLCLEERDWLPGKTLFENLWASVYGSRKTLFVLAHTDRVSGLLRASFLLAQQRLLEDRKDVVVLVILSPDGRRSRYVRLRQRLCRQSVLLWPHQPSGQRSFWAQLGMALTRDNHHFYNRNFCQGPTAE
Outline: as §1

| IC50 [1] [nM] | IC50 [2] [nM] | IC50 [3] [nM] | Structure (SMILES) |
| --- | --- | --- | --- |
| 0.9 | 2.62 | 1450 | COc1cc(-c2[nH]c3sc(C4CCC(N5CCC5)CC4)nc3c2C(C)C)cn2ncnc12 (single isomer, unassigned) [Example 76, 2-(4-(azetidin-1-yl)cyclohexyl)-6-isopropyl-5-(8-methoxy-[1,2,4]triazolo[1,5-a]pyridin-6-yl)-4H-pyrrolo[3,2-d]thiazole] |
| 1.34 | 0.7 | 6420 | COc1cc(-c2[nH]c3sc(C4CCC(NCC(C)(C)OC)CC4)nc3c2C(C)C)cn2ncnc12 (single isomer, unassigned) [Example 86, 4-(6-isopropyl-5-(8-methoxy-[1,2,4]triazolo[1,5-a]pyridin-6-yl)-4H-pyrrolo[3,2-d]thiazol-2-yl)-N-(2-methoxy-2-methylpropyl)cyclohexan-1-amine] |
| 1.34 | 7.36 | 14400 | COc1cc(-c2[nH]c3sc(C4CCC(NC(=O)CNCC(C)C)CC4)nc3c2C(C)C)cn2ncnc12 (stereo not drawn) [Example 129, 2-(isobutylamino)-N-(4-(6-isopropyl-5-(8-methoxy-[1,2,4]triazolo[1,5-a]pyridin-6-yl)-4H-pyrrolo[3,2-d]thiazol-2-yl)cyclohexyl)acetamide] |

Further lines, the compound ahead of its results:

| Structure (SMILES) | IC50 [1] [nM] | IC50 [2] [nM] | IC50 [3] [nM] |
| --- | --- | --- | --- |
| COc1cc(-c2[nH]c3sc(C4CCC(N5CC(OC)C5)CC4)nc3c2C(C)C)cn2ncnc12 (single isomer, unassigned) [Example 123, 6-isopropyl-5-(8-methoxy-[1,2,4]triazolo[1,5-a]pyridin-6-yl)-2-(4-(3-methoxyazetidin-1-yl)cyclohexyl)-4H-pyrrolo[3,2-d]thiazole] | 5.09 | 16.8 | 6290 |
| Cc1c(-c2[nH]c3sc(C(=O)NCCN(C)C)nc3c2C(C)C)cn2ncnc2c1C [Example 372, 5-(7,8-dimethyl-[1,2,4]triazolo[1,5-a]pyridin-6-yl)-N-(2-(dimethylamino)ethyl)-6-isopropyl-4H-pyrrolo[3,2-d]thiazole-2-carboxamide] | 10.7 | 2.49 | 8880 |
| COc1cc(-c2[nH]c3sc(C4CCC(N5CC6(CCOCC6)C5)CC4)nc3c2C(C)C)cn2ncnc12 (single isomer, unassigned) [Example 110, 2-(4-(6-isopropyl-5-(8-methoxy-[1,2,4]triazolo[1,5-a]pyridin-6-yl)-4H-pyrrolo[3,2-d]thiazol-2-yl)cyclohexyl)-7-oxa-2-azaspiro[3.5]nonane] | 2.21 | 0.93 | 5780 |
| Cc1c(-c2[nH]c3sc(C4CCC(NC5COC5)CC4)nc3c2C(C)C)cn(C)c(=O)c1C (single isomer, unassigned) [Example 242, 5-(6-isopropyl-2-(4-(oxetan-3-ylamino)cyclohexyl)-4H-pyrrolo[3,2-d]thiazol-5-yl)-1,3,4-trimethylpyridin-2(1H)-one] | 47.1 | 16.1 | > 50000 |
| Cc1c(-c2[nH]c3sc(C4CCC(NCC(C)(C)O)CC4)nc3c2C(C)C)cn2ncnc2c1C (single isomer, unassigned) [Example 197, 1-((4-(5-(7,8-dimethyl-[1,2,4]triazolo[1,5-a]pyridin-6-yl)-6-isopropyl-4H-pyrrolo[3,2-d]thiazol-2-yl)cyclohexyl)amino)-2-methylpropan-2-ol] | 5.35 | 2.08 | 13100 |
| Cc1c(-c2[nH]c3sc(C4CCC(NCC(C)(C)C)CC4)nc3c2C(C)C)cn2ncnc2c1C (single isomer, unassigned) [Example 199, 4-(5-(7,8-dimethyl-[1,2,4]triazolo[1,5-a]pyridin-6-yl)-6-isopropyl-4H-pyrrolo[3,2-d]thiazol-2-yl)-N-neopentylcyclohexan-1-amine] | 4.98 | 2.19 | 2950 |
